These results are taken from patent US12048680B2, “Use of Gemfibrozil and derivative thereof for treatment and/or prevention of neurodegenerative disease” (Kunming Institute of Zoology Chinese Academy of Sciences, priority 2018, dated 2024).

One experiment deals with astrocytes and microglia. The experiment in a line: Immunofluorescence staining of mouse brain tissue, glia co-localization with Aβ plaques. Type of experiment: in vivo. The settings on record: brain tissue of APP/PS1ΔE9 mice.
The test system of another experiment is APP/PS1ΔE9 mice. The experiment in a line: Open field experiment (anxiety symptoms). The settings on record: 2 months of administration. Type of experiment: in vivo, mouse. The procedure: Gemfibrozil was administered to 8-month-old APP/PS1ΔE9 mice (male and female halves). Gemfibrozil was first dissolved in dimethyl sulfoxide (DMSO) at a concentration of 50 mg/mL, and then diluted to a final concentration of 50 μg/mL with mouse drinking water to obtain a drug solution. The mice in the administration group were allowed to freely drink the drug solution containing gemfibrozil, in which the final concentration of DMSO in the solution was 0.1%; and the mice in the control group were allowed to drink water containing 0.1% DMSO freely. All drinking devices contained with Gemfibrozil were wrapped in aluminum foil to prevent decomposition by exposure. During dosing, the drug solution was replaced every 2 days. Mice were measured daily for water consumption. After 2 months of dosing, all mice were subjected to behavioural experiments. Mice were placed in the laboratory to be behaviourally tested one hour prior to the start of daily behavioural studies, and all behavioural experiments were completed between 9 and 17 o'clock. All experiments involving animals were approved by Animal Ethics Committee of the Kunming Institute of Zoology, CAS. We evaluated the anxiety symptom behavior of APP/PS1ΔE9 mice 2 months after administration of Gemfibrozil using an open field experiment. […]

With `Cc1ccc(C)c(OCCCC(C)(C)C(=O)O)c1` [Gemfibrozil, 2,2-dimethyl-5-(2,5-dimethylphenoxy) pentanoic acid], the “degree of co-localization of the marker Iba1 for microglia with Aβ plaques” value in the experiment on astrocytes and microglia (vs control APP/PS1ΔE9 mice (A-B in FIG. 6)) is reported as “significantly increased”. Further, in the experiment on astrocytes and microglia (vs control APP/PS1ΔE9 mice (C-D in FIG. 6)), the “degree of co-localization of GFAP for astrocytes with Aβ plaques” value was “significantly increased”. In addition, the anxiety symptoms entry with APP/PS1ΔE9 mice (vs control group) was “significantly alleviated”. The “lingering time in the open field central region” value in the experiment with APP/PS1ΔE9 mice (vs control group (A, C in FIG. 2)) is listed as “significantly increased”.
